# From patent US12648939B2, “Compounds and methods for treating spasticity” (Lexicon Pharmaceuticals, Inc., priority 2022, dated 2026)
# Legend:
# [1] = tested on: rat model of spasticity induced by complete spinal cord transection; experiment: Rate-dependent depression (RDD) of the H-reflex in SCI rats; format: in vivo
# Protocol: (§1) The efficacy of Compound 1 was measured in a rat model of spasticity induced by complete spinal cord transection. To induce muscle spasticity, a model of complete spinal cord transection cord at the eighth thoracic (T8) vertebral level was used. Five weeks after the Spinal Cord Injury (SCI), the rats were orally (P.O.) treated with Compound 1 (3, 10, or 30 mg/kg), Baclofen (4.5 mg/kg). Tizanidine (3 mg/kg) or vehicles alone (0.9% NaCl, Compound 1 vehicle), and the degree of spasticity response was measured using the rate-dependent depression (RDD) of the Hoffmann's reflex (H-reflex) and spasms induction.
# (§2) Materials and Methods. […] One hundred and fifty-one SCI rats were maintained up to the end of the 5th post-injury week. One hundred and forty rats were submitted to P.O. administration of the test compounds and EMG analysis.
# (§3) The rat was firmly restrained to immobilize the head. In an upright position, the gavage needle was passed along the side of the mouth. Following the roof of the mouth, the needle was advanced into the esophagus and toward the stomach. After the needle is passed to the correct length, the compound was slowly injected. The rats were randomly assigned to one of the test groups:
# (§4) Electroneuromyographical recordings were performed in the right hind limbs before and 1, 2, 3, 4, 5 and 6 hours after P.O. administration.
# (§5) Electromyographical (EMG) signals were amplified (100×) and bandpass filtered (300 Hz to 5 kHz; A-M Systems Amplifier. Everett, Washington; model 1700) before sampling at 13.5 kHz (Digidata 1440A, Molecular Devices). The tibial nerve was stimulated by using square pulses with increasing stimulus intensities (0.2 mA increments starting from 0.2 mA, 0.2 Hz, 0.2 ms; A-M systems stimulator, Model 2100) to obtain recruitment curves.
# RDD of the H-reflex: To induce sedation, intraperitoneal injection of ketamine (100 mg/kg; Imalgen®) was used to suppress voluntary movements and increase muscle tone. Rats thorax and hindlimbs were secured on a heating pad with adhesive tape. The following series of measurements were repeated throughout the experiment: • 1. Hmax and Mmax determination: the tibial nerve was stimulated for 0.2 ms at 0.2 Hz with increasing current intensities (1-6 mA in 0.1 mA increments) until Mmax was stabilized. • 2. RDD measurement: the intensity necessary to obtain a maximal H-reflex was used for trains of 13 stimulations at 0.2, 1, 2 and 5 Hz with 2 min intervals between each train of stimulations. A whole series of measurements lasted about 15 minutes. • 3. Determination of the level of RDD: at the different frequencies, responses to the first three stimulations necessary for the depression to occur were discarded, and all the responses were expressed as percentages relative to the mean response at 0.2 Hz in the same series of measurements.
# (§6) Data analysis: H-reflex RDDs and areas under the curves (AUC) were determined as a measurement of spasticity and analyzed at each time point and for each frequency with Mann-Whitney test or with Kruskal Wallis one-way analysis of variance (ANOVA) test, followed by Dunn's multiple comparisons test. P<0.05 was considered significant. Significant differences were marked with asterisks (*) according to their respective P-values: values were expressed as the mean value±standard error of the mean (SEM) in all graphs. All statistical analyses were performed using GraphPad Prism 7 (San Diego, California, USA).
# Modulation of the RDD of the H-reflex. The Hoffmann reflex was used to assess primary (type 1a) afferents-mediated motoneuronal excitability in rats suffering from spasticity. Electromyograms typically show two responses: an initial M wave (FIG. 6B) resulting from the direct activation of motor axons (FIG. 6A-1), and a delayed H wave (FIG. 6B) resulting from the monosynaptic activation of motoneurons by the afferents (FIG. 6A-2). […]
# [2] = tested on: rat model of spasticity induced by complete spinal cord transection; experiment: Muscle spasms evoked by tibial nerve stimulation in chronic SCI rats; format: in vivo
# Protocol: as §1, §2, §3, §4, §5
# Muscles spasms: In awake chronic SCI rats, muscle spasms were evoked with stimulation of the tibial nerve while performing electromyographic (EMG) recordings from the flexor digitorum brevis (FDB) muscle. Spastic spinal rats were handled nine days before the experiment and progressively habituated to be individually constrained in a plexiglass tube and to immobilization of their paralyzed hindlimbs with tape. • 1. Hmax and Mmax determination: the tibial nerve was stimulated for 0.2 ms at 0.2 Hz with increasing current intensities (1-6 mA in 0.2 mA increments) until Mmax was stabilized. • 2. A supramaximal single-pulse stimulation to elicit muscle spasms was fixed throughout the experiment (2 or 3 times the threshold intensity for M-wave) and evoked 5 times, with 60 s interstimulus intervals. EMG were rectified and averaged over 2000 ms interval post-stimulus to quantify spasms (Clamplit 8.0, Axon Instruments).
# as §6
# Modulation of Muscle Spasms. When the tibial nerve was stimulated in acutely (1 week after injury) injured rats, little reflexes were evoked in the FDB muscle (FIG. 8A), regardless of the stimulation intensity. In contrast, stimulation of the tibial nerve in chronic (5 weeks after injury) SCI rats produced more (P<0.0001; Mann-Whitney test; FIG. 8C) long-lasting muscle contractions (FIG. 8B). This effect is a reliable correlate of the development of spasticity. In spastic rats, spasms were induced through the FDB muscle after electrical stimulation of the tibial nerve. […]
# [3] = tested on: myelin oligodendrocyte glycoprotein (MOG)-induced murine model of experimental autoimmune encephalomyelitis (EAE); experiment: Body weight in MOG-induced EAE model; format: in vivo, C57BL/6J mice; settings: 1 mg/kg IP QD; Day 16; vehicle 82.06±2.35%
# Protocol: (§7) The effect of Compound 1 on spasticity was evaluated in a myelin oligodendrocyte glycoprotein (MOG)-induced murine model of experimental autoimmune encephalomyelitis (EAE), a central nervous system (CNS) autoimmune demyelinating disease that mimics many of the clinical and pathologic features of multiple sclerosis. Gilgun-Sherki Y., et al., Neurosciences Research 47:201-207, 2003.
# (§8) Study Design and Results. This study used sixty female young adult (10-11 weeks at study initiation) C57BL/6J mice sourced from Envigo RMS (Israel), Ltd. The animals were divided into five experimental groups:
# (§9) Each group received a dose volume of 5 ml/kg, and the regimen was performed daily from day 0 to 22 of the study, QD. On study day 21, half of the animals in each group was treated and tested for electrophysiology and electromyography (EMG) two hours post dosing. On study day 22, the same was performed with the remaining half of the animals in each group.
# (§10) FIG. 1 provides a representation of the study. Following baseline measurements, the MOG murine model begins with a sensitization period induced by the single subcutaneous (SC) injection of MOG emulsified in Complete Freund's adjuvant (CFA) on Study Day 0, followed by intraperitoneal (IP) supplemental immunostimulation with pertussis toxin (PT) carried out once at the day of EAE induction (study day 0) and once again 48 hours later (on study day 2). […] Mechanical allodynia was tested using the Von Frey test at Baseline and on Day 9 at various timepoints. For evaluation of spasticity, transcranial motor-evoked potentials (tcMEPs) were tested at Baseline and on Days 9 and 21-22 (half of the animals on each day). All animals were administered treatment once daily, starting on Day 0 until Day 22. Animals in Group 1 received oral (PO) treatment with the vehicle. Animals in Group 2 were treated with Fingolimod (FTY720; positive control) at a dose level of 3 mg/kg. PO. Animals in Groups 3 and 4 were treated with the test item Compound 1 at a dose level of 10 mg/kg or 3 mg/kg, PO, respectively. […]
# [4] = tested on: myelin oligodendrocyte glycoprotein (MOG)-induced murine model of experimental autoimmune encephalomyelitis (EAE); experiment: Mechanical allodynia evaluation (Von Frey testing) in EAE model; format: in vivo, C57BL/6J mice; settings: 1 mg/kg IP, Day 9
# Protocol: as §7, §8
# (§11) FIG. 1 provides a representation of the study. Following baseline measurements, the MOG murine model begins with a sensitization period induced by the single subcutaneous (SC) injection of MOG emulsified in Complete Freund's adjuvant (CFA) on Study Day 0, followed by intraperitoneal (IP) supplemental immunostimulation with pertussis toxin (PT) carried out once at the day of EAE induction (study day 0) and once again 48 hours later (on study day 2). […] Mechanical allodynia was tested using the Von Frey test at Baseline and on Day 9 at various timepoints. For evaluation of spasticity, transcranial motor-evoked potentials (tcMEPs) were tested at Baseline and on Days 9 and 21-22 (half of the animals on each day). All animals were administered treatment once daily, starting on Day 0 until Day 22. Animals in Group 1 received oral (PO) treatment with the vehicle. Animals in Group 2 were treated with Fingolimod (FTY720; positive control) at a dose level of 3 mg/kg. PO. Animals in Groups 3 and 4 were treated with the test item Compound 1 at a dose level of 10 mg/kg or 3 mg/kg, PO, respectively. Animals in Group 5 were treated with Tizanidine at a dose level of 1 mg/kg, IP.
# Mechanical Allodynia Evaluation (Von Frey Testing): Animals were tested for mechanical allodynia using the Von Frey test at Baseline, and then on Day 9 at 0.5 hours ([…]), 1.5 hours, 3.5 hours (all groups) and 5.5 hours (Groups 1-4 only) post-dose.
# [5] = tested on: myelin oligodendrocyte glycoprotein (MOG)-induced murine model of experimental autoimmune encephalomyelitis (EAE); experiment: EAE clinical score and AUC; format: in vivo, C57BL/6J mice; settings: 1 mg/kg IP QD
# Protocol: as §7, §8
# as §10, with “22.” for “22. Animals in Group 1 received oral (PO) treatment with the vehicle. Animals in Group 2 were treated with Fingolimod (FTY720; positive control) at a dose level of 3 mg/kg. PO. Animals in Groups 3 and 4 were treated with the test item Compound 1 at a dose level of 10 mg/kg or 3 mg/kg, PO, respectively.”
# [6] = tested on: myelin oligodendrocyte glycoprotein (MOG)-induced murine model of experimental autoimmune encephalomyelitis (EAE); experiment: Electrophysiology (EMG, transcranial motor-evoked potentials) in EAE model; format: in vivo, C57BL/6J mice; settings: 1 mg/kg IP QD, Day 10
# Protocol: as §7, §8, §9, §11
# Electrophysiology: The animals were subjected to electrophysiology testing at Baseline and Days 10 and 21 of the study. The EMG, latency, latency to main event, duration, peak-to-peak (P2P) amplitude, and number of subpeaks were recorded.
SMILES,"maximum effect, time (H-reflex RDD) ([1]; single P.O. 4.5 mg/kg)",onset of action (H-reflex RDD) ([1]; single P.O. 4.5 mg/kg),"mean relative amplitudes of the H-reflex (RDD) ([1]; single P.O. 4.5 mg/kg, SCI rats 5 weeks after injury)","maximum effect, time (muscle spasms) ([2]; single P.O. 4.5 mg/kg)",muscle spasms (AUC) ([2]; single P.O. 4.5 mg/kg),onset of action (muscle spasms) ([2]; single P.O. 4.5 mg/kg),"maximum effect, time (H-reflex RDD) ([1]; single P.O. 3 mg/kg)",onset of action (H-reflex RDD) ([1]; single P.O. 3 mg/kg),"mean relative amplitudes of the H-reflex (RDD), effect on spasticity ([1]; single P.O. 3 mg/kg, SCI rats 5 weeks after injury)","maximum effect, time (muscle spasms) ([2]; single P.O. 3 mg/kg)",muscle spasms (AUC) ([2]; single P.O. 3 mg/kg),onset of action (muscle spasms) ([2]; single P.O. 3 mg/kg),mean BW presented as percentage from Baseline [3],"withdrawal force threshold (Von Frey) ([4]; 3.5 hours post dosing, vehicle 0.78±0.06 g)","withdrawal force threshold compared to vehicle ([4]; all timepoints (0.5, 1.5, and 3.5 hours) post-dose)",clinical score compared to the vehicle [5],latency until reaching the main event ([6]; vehicle 10.05±2.59 ms),peak-to-peak (P2P) amplitude ([6]; vehicle 7681.17±1505.12 μV)
"NCC(CC(=O)O)c1ccc(Cl)cc1 (stereo not drawn) [Baclofen, reference compound]",5 h,1 h,significantly reduced,2 h,reduced,1 h,,,,,,,,,,,,
"Clc1ccc2nsnc2c1NC1=NCCN1 [Tizanidine, reference compound]",,,,,,,2 h,2 h,significantly reduced,3 h,reduced,2 h,91.31±1.59%,1.32 ± 0.15 g,higher withdrawal force threshold,did not result in a significant reduction,5.64 ± 0.19 ms,13488.71±1234.10 μV
